According to US20060293307A1, “Oxazolidinone derivatives as antimicrobials” (priority 2002, published 2006):
≈ marks a conversion by molar mass, not a printed value. Like-named read-outs stand apart in the source and are kept apart here.

How the values were obtained:
Test in all cases: MIC, agar incorporation method
S. aureus (MRSA) 15187 = type: cell-based, Staphylococcus aureus
S. pneumoniae ATCC 6303 = type: cell-based, Streptococcus pneumoniae
S. pneumoniae AB4 = type: cell-based, Streptococcus pneumoniae
S. pneumoniae AB 30 = type: cell-based, Streptococcus pneumoniae
S. pneumoniae 1275 = type: cell-based, Streptococcus pneumoniae
S. aureus ATCC29213 = type: cell-based, Staphylococcus aureus
S. haemo ATCC 29970 = type: cell-based
S. pneumoniae AB 23 = type: cell-based, Streptococcus pneumoniae
S. epidermidis 358 = type: cell-based, Staphylococcus epidermidis
[1] = tested on: S. epidermidis (MRSE)32965; type: cell-based, Staphylococcus epidermidis
(MRSA) 562 = type: cell-based, Staphylococcus aureus
[2] = tested on: S. epidermidis ATCC 12228; type: cell-based, Staphylococcus epidermidis
S. pneumoniae 217 = type: cell-based, Streptococcus pneumoniae
S. pneumoniae AB 21 = type: cell-based, Streptococcus pneumoniae
E. faecalis 21777 = type: cell-based
S. epidermidis 823 = type: cell-based, Staphylococcus epidermidis
E. durans 581 = type: cell-based
Moraxella cata. M2 = type: cell-based
Acinetobacter 9956 = type: cell-based
S. aureus (Smith 49951) = type: cell-based, Staphylococcus aureus
E. coli 25922 = type: cell-based
E. faecium 398(VRE) = type: cell-based, Enterococcus faecium
S. aureus (MRSA) ST450 = type: cell-based, Staphylococcus aureus
S. pyogenes 25147 = type: cell-based, Streptococcus pyogenes
S. pneumoniae 1251 = type: cell-based, Streptococcus pneumoniae
E. faecalis 29212 = type: cell-based
Moraxella M1 = type: cell-based
S. pneumoniae 1256 = type: cell-based, Streptococcus pneumoniae
[3] = tested on: Serratia marcescens 12999; type: cell-based
S. pneumoniae AB-2 = type: cell-based, Streptococcus pneumoniae
S. pyogenes 19615 = type: cell-based, Streptococcus pyogenes
S. pneumoniae ATCC 49619 = type: cell-based, Streptococcus pneumoniae
S. aureus (MRSA) 21299 = type: cell-based, Staphylococcus aureus
S. aureus SG 511 = type: cell-based, Staphylococcus aureus
S. pneumoniae AB 17 = type: cell-based, Streptococcus pneumoniae
S. pneumoniae AB 16 = type: cell-based, Streptococcus pneumoniae

C[C@H](Cl)C(=O)NCC1CN(c2ccc(N3CCN(c4ccc([N+](=O)[O-])s4)CC3)c(F)c2)C(=O)O1 (stereo partly drawn) [Compound No. 7, (S)—N-[[3-[3-Fluoro-4-[N-1-{4-(5-nitro-2-thienyl)piperazinyl}]-phenyl]-2-oxo-5-oxazolidinyl]-methyl]-2-chloro-propionamide]
MIC (S. aureus (MRSA) 15187; S. No. 4, S. aureus (MRSA) 15187): >8 µg/mL | MIC (S. pneumoniae ATCC 6303; S. No. 50, S. pneumoniae ATCC 6303): 0.5 µg/mL (≈ 0.977 µM) | MIC (S. pneumoniae AB4; S. No. 33, S. pneumoniae AB4): 0.5 µg/mL (≈ 0.977 µM) | MIC (S. pneumoniae AB 30; S. No. 47, S. pneumoniae AB 30): 0.5 µg/mL (≈ 0.977 µM) | MIC (S. pneumoniae 1275; S. No. 57, S. pneumoniae 1275): 0.25 µg/mL (≈ 0.488 µM) | MIC (S. aureus ATCC29213; S. No. 2, S. aureus ATCC29213): >8 µg/mL | MIC (S. haemo ATCC 29970; S. No. 15, S. haemo ATCC 29970): 2 µg/mL (≈ 3.91 µM) | MIC (S. pneumoniae AB 23; S. No. 43, S. pneumoniae AB 23): 1 µg/mL (≈ 1.95 µM) | MIC (S. epidermidis 358; S. No. 14, S. epidermidis 358): 2 µg/mL (≈ 3.91 µM) | MIC ([1]; S. No. 13, S. epidermidis (MRSE)32965): 2 µg/mL (≈ 3.91 µM) | MIC ((MRSA) 562; S. No. 8, (MRSA) 562): >8 µg/mL | MIC ([2]; S. No. 10, S. epidermidis ATCC 12228): 1 µg/mL (≈ 1.95 µM) | MIC (S. pneumoniae 217; S. No. 38, S. pneumoniae 217): 1 µg/mL (≈ 1.95 µM) | MIC (S. pneumoniae AB 21; S. No. 41, S. pneumoniae AB 21): 1 µg/mL (≈ 1.95 µM) | MIC (E. faecalis 21777; S. No. 18, E. faecalis 21777): >8 µg/mL | MIC (S. epidermidis 823; S. No. 12, S. epidermidis 823): 2 µg/mL (≈ 3.91 µM) | MIC (E. durans 581; S. No. 24, E. durans 581): 8 µg/mL (≈ 15.6 µM) | MIC (Moraxella cata. M2; S. No. 59, Moraxella cata. M2): >8 µg/mL | MIC (Acinetobacter 9956; S. No. 30, Acinetobacter 9956): >8 µg/mL | MIC (S. aureus (Smith 49951); S. No. 9, S. aureus (Smith 49951)): >8 µg/mL | MIC (E. coli 25922; S. No. 25, E. coli 25922): >8 µg/mL | MIC (E. faecium 398(VRE); S. No. 22, E. faecium 398(VRE)): 8 µg/mL (≈ 15.6 µM) | MIC (S. aureus (MRSA) ST450; S. No. 6, S. aureus (MRSA) ST450): >8 µg/mL | MIC (S. pyogenes 25147; S. No. 52, S. pyogenes 25147): 2 µg/mL (≈ 3.91 µM) | MIC (S. pneumoniae 1251; S. No. 54, S. pneumoniae 1251): 1 µg/mL (≈ 1.95 µM) | MIC (E. faecalis 29212; S. No. 17, E. faecalis 29212): >8 µg/mL | MIC (Moraxella M1; S. No. 58, Moraxella M1): >8 µg/mL | MIC (S. pneumoniae 1256; S. No. 56, S. pneumoniae 1256): 0.25 µg/mL (≈ 0.488 µM) | MIC ([3]; S. No. 29, Serratia marcescens 12999): >8 µg/mL | MIC (S. pneumoniae AB-2; S. No. 31, S. pneumoniae AB-2): 0.5 µg/mL (≈ 0.977 µM) | MIC (S. pyogenes 19615; S. No. 51, S. pyogenes 19615): 2 µg/mL (≈ 3.91 µM) | MIC (S. pneumoniae ATCC 49619; S. No. 48, S. pneumoniae ATCC 49619): 0.5 µg/mL (≈ 0.977 µM) | MIC (S. aureus (MRSA) 21299; S. No. 5, S. aureus (MRSA) 21299): >8 µg/mL | MIC (S. aureus SG 511; S. No. 3, S. aureus SG 511): >8 µg/mL | MIC (S. pneumoniae AB 17; S. No. 40, S. pneumoniae AB 17): 1 µg/mL (≈ 1.95 µM) | MIC (S. pneumoniae AB 16; S. No. 39, S. pneumoniae AB 16): 1 µg/mL (≈ 1.95 µM)

O=C(NC[C@H]1CN(c2ccc(N3CCN(c4ccc([N+](=O)[O-])s4)CC3)c(F)c2)C(=O)O1)C(F)F [Compound No. 8, (S)—N-[[3-[3-Fluoro-4-[4-(5-nitro-2-thienyl)-1-piperazinyl]phenyl]-2-oxo-5-oxazolidinyl]methyl]difluoroacetamide]
MIC (S. aureus (MRSA) 15187; Staphylococcus aureus, MRSA): 2 µg/mL (≈ 4 µM) | MIC (S. pneumoniae ATCC 6303; Streptococcus pneumoniae, ATCC6303): 0.25 µg/mL (≈ 0.501 µM) | MIC (S. pneumoniae AB4; Streptococcus pneumoniae, AB4): 0.125 µg/mL (≈ 0.25 µM) | MIC (S. pneumoniae AB 30; Streptococcus pneumoniae, AB30): 0.25 µg/mL (≈ 0.501 µM) | MIC (S. pneumoniae 1275; Streptococcus pneumoniae, 1275): 0.06 µg/mL (≈ 0.12 µM) | MIC (S. aureus ATCC29213; Staphylococcus aureus, ATCC29213): 2 µg/mL (≈ 4 µM) | MIC (S. haemo ATCC 29970): 0.25 µg/mL (≈ 0.501 µM) | MIC (S. pneumoniae AB 23; Streptococcus pneumoniae, AB23): 0.25 µg/mL (≈ 0.501 µM) | MIC (S. epidermidis 358; Staphylococcus epidermidis, 358): 0.25 µg/mL (≈ 0.501 µM) | MIC ([1]; Staphylococcus epidermidis, MRSE): 0.25 µg/mL (≈ 0.501 µM) | MIC ((MRSA) 562; Staphylococcus aureus, MRSA): 2 µg/mL (≈ 4 µM) | MIC ([2]; Staphylococcus epidermidis, ATCC12228): 0.125 µg/mL (≈ 0.25 µM) | MIC (S. pneumoniae 217; Streptococcus pneumoniae, 217): 0.25 µg/mL (≈ 0.501 µM) | MIC (S. pneumoniae AB 21; Streptococcus pneumoniae, AB21): 0.25 µg/mL (≈ 0.501 µM) | MIC (E. faecalis 21777; Enterococcus faecalis, 21777): 2 µg/mL (≈ 4 µM) | MIC (S. epidermidis 823; Staphylococcus epidermidis, 823): 0.25 µg/mL (≈ 0.501 µM) | MIC (E. durans 581; Enterococcus durans, 581): 0.25 µg/mL (≈ 0.501 µM) | MIC (Moraxella cata. M2; Moraxella, CATA.M2): 1 µg/mL (≈ 2 µM) | MIC (Acinetobacter 9956; Acinetobacter, 9956): 8 µg/mL (≈ 16 µM) | MIC (S. aureus (Smith 49951); Staphylococcus aureus): 1 µg/mL (≈ 2 µM) | MIC (E. coli 25922; Escherichia coli, 25922): > 8 µg/mL | MIC (E. faecium 398(VRE); Enterococcus faecium, VRE): 0.25 µg/mL (≈ 0.501 µM) | MIC (S. aureus (MRSA) ST450; Staphylococcus aureus, MRSA): 2 µg/mL (≈ 4 µM) | MIC (S. pyogenes 25147; Streptococcus pyogenes, 25147): 0.25 µg/mL (≈ 0.501 µM) | MIC (S. pneumoniae 1251; Streptococcus pneumoniae, 1251): 0.25 µg/mL (≈ 0.501 µM) | MIC (E. faecalis 29212; Enterococcus faecalis, 29212): 0.25 µg/mL (≈ 0.501 µM) | MIC (Moraxella M1; Moraxella, M1): 1 µg/mL (≈ 2 µM) | MIC (S. pneumoniae 1256; Streptococcus pneumoniae, 1256): 0.125 µg/mL (≈ 0.25 µM) | MIC ([3]; Serratia marcescens, 12999): > 8 µg/mL | MIC (S. pneumoniae AB-2; Streptococcus pneumoniae, AB2): 0.125 µg/mL (≈ 0.25 µM) | MIC (S. pyogenes 19615; Streptococcus pyogenes, 19615): 0.25 µg/mL (≈ 0.501 µM) | MIC (S. pneumoniae ATCC 49619; Streptococcus pneumoniae, ATCC49619): 0.25 µg/mL (≈ 0.501 µM) | MIC (S. aureus (MRSA) 21299; Staphylococcus aureus, MRSA): 2 µg/mL (≈ 4 µM) | MIC (S. aureus SG 511; Staphylococcus aureus, SG511): 0.25 µg/mL (≈ 0.501 µM) | MIC (S. pneumoniae AB 17; Streptococcus pneumoniae, AB17): 0.25 µg/mL (≈ 0.501 µM) | MIC (S. pneumoniae AB 16; Streptococcus pneumoniae, AB16): 0.25 µg/mL (≈ 0.501 µM)
